# System: primary human AML cells
# Test: Xenotransplantation of shRNA-transduced primary human AML cells into NSG mice
# Format: in vivo
# Description: The phenotype of wt peptide treatment was then compared with that of downregulation of SALL4 in primary AML cells. SALL4-specific shRNA (7210 and 7412, FIG. 6A) validated by previous studies were used for these experiments. FACS analysis with Annexin V/PI staining confirmed that there was a 2-fold increase in cell apoptosis and cell death in vitro in primary AML cells when SALL4 expression was reduced (FIG. 6B). In addition, there was an increased survival of leukemic recipient mice in vivo upon knocking down of SALL4 expression in these primary AML samples (FIG. 6C). 1.5×10^6 SALL4 shRNA or control retrovirus-treated primary human AML cells were transplanted into sublethally irradiated (1.0 Gy) NOD/SCID/IL2rγ-null mice by tail vein injection. Fatal AML with onset ranging from one to three months developed in all control recipient (7 out of 7) and some SALL4 shRNA recipient (2 out of 6) mice after transplantation. The transplanted leukemia disease was characterized by immature blasts with human CD45 expression in peripheral blood, bone marrow, and tissues such as liver and spleen (FIGS. 6C-6F). […] While the median survival of control recipient mice (N=7) was 33 days, the median survival of SALL4 shRNA recipient mice (N=6) was 109 days. Both the Log rank (also called Mantel-Cox, P=0.03 (FIG. 4H) and Gehan-Breslow-Wilcoxon (P=0.01)) tests were used for survival analysis and were statistically significant.
# NSG (NOD.Cg-Prkdcscid Il2rgtm 1Wjl/SzJ, The Jackson Laboratory, ME, USA) mice were bred and maintained in the Children's Hospital Boston animal facility. All animal work has been approved by and done according to the guidelines of the IACUC under protocol 10-10-1832. Human primary AML cells exposed to various peptides or carrier only (1.0×10^6 cells per mouse) or transduced with SALL4-shRNA or control lentivirus (1.5×10^6 cell per mouse) were transplanted into 10- to 12-week old mice received 135 cGy sublethal irradiation 2-4 h before the injection via the dorsal tail vein. Mice were euthanized when they became ill or at 78 days post-transplantation. BM was removed from the two femurs by flushing with RPMI1640 medium, spleen cells were abstained by mincing and filtering through a cell strainer and peripheral blood was collected from the heart. […] The percentage of human CD45+ cells was calculated as follows: % human CD45+ cells=No. human CD45+ cells/(No. human CD45+ cells+No. mouse CD45+ cells)×100. […]
# SALL4 is critical for leukemic cell survival in the AML cell line NB4 (Yang, et al., Blood, 112:805-813 (2008)). […] 48 hours after transduction, the viability of cells was determined by flow cytometry after staining with Annexin V and propidium iodide (PI). […]
sequence,measurement,setting,value
"GATGCCTTGAAACAAGCCAAGCTACCTCA (chemistry not given here) [compound 7412, SALL4 shRNA used in primary AML cells]",recipient mice without leukemia / still healthy,four months after transplantation,four out of six
same,recipient mice that developed fatal AML / leukemia,"mouse, in vivo",2 out of 6
same,human CD45 positive cells in non-leukemic recipients,"peripheral blood, bone marrow or spleen",less than 0.5%
same,median survival of recipient mice,"transduced primary human AML cells, tail vein",109 days
